# Source: patent US20160115540A1, “PRODRUGS AND DRUGS” (Biogen MA Inc., priority 2013, published 2016)
# Counter-ions that a name gives are not always drawn.
# System: spleen
# Assay: Transcriptional profiling, multi-dosing regimen, naïve mice: spleen
# Format: in vivo
# Settings: for Number of differentially expressed genes identified: Spleen: Table 13: Naïve, Single Dose (so in the source), 12 h after last dosing
# Protocol: In vivo, DMF is rapidly metabolized to monomethyl fumarate (MMF). […] Animals were exposed to CO2 and whole blood collected via cardiac puncture. Two 100 μl aliquots of whole blood were collected in 1.5 mL microcentrifuge tubes and snap frozen in liquid nitrogen. Peripheral (liver, spleen, kidney and jejunum) and CNS brain (cerebellum, hippocampus, striatum and cortex) tissues were harvested and snap frozen in liquid nitrogen, with special care taken to collect tissues of similar size and from the same location. All samples were stored at -80° C. until RNA extraction was conducted. For RNA preparation, frozen tissues were placed in 2 mL RNAse-free 96-well blocks with 1.5 mL QIAzol Lysis Reagent (QIAgen) and a 3.2 mm stainless steel bead (BioSpec Products, Bartlesville, Okla.). Tissues were disrupted for four cycles of 45 seconds in a Mini-Beadbeater (Biospec Products). RNA was extracted in chloroform and the aqueous phase was mixed with an equal volume of 70% ethanol. Extracted RNA was applied to RNeasy 96 plates and purified by the spin method according to the manufacturer's protocol (RNeasy 96 Universal Tissue Protocol, QIAgen, Hilden Germany). […] Two micrograms of biotin labeled […] probe were hybridized to Affymetrix GeneChip Affymetrix HT_MG-430_PM plate arrays with modified conditions as described in […] et al. Washing and staining of the hybridized arrays were completed as described in the GeneChip Expression analysis technical manual for HT plate arrays using the Genechip® Array Station (Affymetrix, Santa Clara, Calif.) with modifications as described in […] et al. The processed GeneChip® plate arrays were scanned using GeneTitan scanner (Affymetrix, Santa Clara, Calif.). Affymetrix scans were subject to quality control (QC) measures. These tests included a visual inspection of the distribution of raw signal intensities and an assessment of RNA degradation, relative log expression (RLE), and normalized unsealed standard error (NUSE). All sample scans that passed these QC metrics were included in the analysis. All CEL files were subjected to GC-content-based Robust Multi-array Average (GCRMA) normalization (version 2.20.0) (Irizarry R A, et al. Nucleic Acids Res 2003; 31:e15; Li C, et al. […] Stat Appl Genet Mol Biol 2004; 3:Article3). […] Springer Science+Business Media 2005). Changes in gene expression were studied by applying a linear modeling approach to fit gene expression levels according to the defined groups of samples (e.g. DMF-, MMF-, and Vehicle-treated animals) and Bayesian posterior error analysis as implemented by Smyth (Smyth G K. Stat Appl Genet Mol Biol 2004; 3:Article3). The comparisons considered included: DMF-vs-MMF, DMF-vs-Vehicle, and MMF-vs-Vehicle. […] Very few DEGs are observed in blood and tissues derived from the central nervous system (brain, cerebellum, cortex, striatum, and spinal cord).
# [1] = SPLEEN, 100DMF-vs-100MMF, naïve multidose
# [2] = SPLEEN, 100DMF-vs-Veh, naïve multidose
# [3] = SPLEEN, 100MMF-vs-Veh, naïve multidose
compound,measurement,setting,value
"COC(=O)/C=C/C(=O)OC [DMF, dimethyl fumarate]",FC 4931431B13Rik (1430416_PM_at),[1],2.18
same,FC AU015536 (1445025_PM_at),[1],1.55
same,FC Adap2 (1425639_PM_at),[1],1.60
same,FC Agtr1a (1436739_PM_at),[1],1.61
same,FC Ano1 (1426571_PM_at),[1],1.70
same,FC Ano1 (1459713_PM_s_at),[1],1.55
same,FC Apoc1 (1417561_PM_at),[1],1.74
same,FC Ccbe1 (1439327_PM_at),[1],2.07
same,FC Ccdc80 (1424187_PM_at),[1],1.74
same,FC Ccl3 (1419561_PM_at),[1],1.81
same,FC Ccl6 (1420249_PM_s_at),[1],1.88
same,FC Ccr3 (1422957_PM_at),[1],2.25
same,FC Cd300ld (1424832_PM_at),[1],1.82
same,FC Cdr2l (1445027_PM_at),[1],1.57
same,FC Clec4n (1419627_PM_s_at),[1],1.52
same,FC Clec4n (1425951_PM_a_at),[1],1.83
same,FC Dmd (1417307_PM_at),[1],1.59
same,FC Ear1 (1421802_PM_at),[1],3.89
same,FC Ear1 /// Ear12 /// Ear2 /// Ear3 (1422411_PM_s_at),[1],1.79
same,FC Ear2 (1449846_PM_at),[1],1.51
same,FC Ear3 (1422412_PM_x_at),[1],1.80
same,FC Emr4 (1424998_PM_at),[1],1.77
same,FC Ercc61 (1424766_PM_at),[1],−1.66
same,FC Fam63a (1438321_PM_x_at),[1],−1.52
same,FC Fcgr1 (1417876_PM_at),[1],1.61
same,FC Fcna (1418243_PM_at),[1],1.57
same,FC Hs6st2 (1450047_PM_at),[1],1.64
same,FC Kcnj16 (1435094_PM_at),[1],1.69
same,FC Klrb1a (1450296_PM_at),[1],1.78
same,FC Lphn3 (1458742_PM_at),[1],1.60
same,FC Ncr1 (1422089_PM_at),[1],1.54
same,FC Niacr1 (1419721_PM_at),[1],1.65
same,FC P2ry12 (1431724_PM_a_at),[1],1.66
same,FC Pla2g7 (1430700_PM_a_at),[1],1.51
same,FC Ptplad2 (1450967_PM_at),[1],1.56
same,FC Rab31 (1431691_PM_a_at),[1],1.73
same,FC Rnf144b (1425282_PM_at),[1],1.86
same,FC Skiv2l (1422584_PM_at),[1],−1.52
same,FC St18 (1455123_PM_at),[1],1.75
same,FC Sult1a1 (1427345_PM_a_at),[1],1.51
same,FC Tmem26 (1434583_PM_at),[1],1.57
same,FC Ubn2 (1430056_PM_at),[1],−1.62
same,FC Vcam1 (1415989_PM_at),[1],1.50
same,FC Vcam1 (1436003_PM_at),[1],1.62
same,FC Vcam1 (1451314_PM_a_at),[1],1.61
same,FC Vnn3 (1420723_PM_at),[1],1.54
same,FC probe 1420250_PM_at (no gene symbol),[1],1.50
same,FC probe 1421534_PM_at (no gene symbol),[1],1.57
same,FC probe 1429277_PM_at (no gene symbol),[1],1.59
same,FC probe 1442323_PM_at (no gene symbol),[1],−1.55
same,FC probe 1444189_PM_at (no gene symbol),[1],1.71
same,FC probe 1445379_PM_at (no gene symbol),[1],−1.51
same,FC Aox1 (1419435_PM_at),[2],1.66
same,FC Gsta3 (1423436_PM_at),[2],1.86
same,FC Gstm1 (1416416_PM_x_at),[2],1.57
same,FC Gstm1 (1448330_PM_at),[2],1.61
same,Number of differentially expressed genes identified: Spleen,100 mpk DMF-vs-90 mpk MMF,52
same,Number of differentially expressed genes identified: Spleen,100 mpk DMF-vs-Vehicle,4
same,"CCR3, Klrb1c, NCR1 and CCL3L1 expression (downstream of IL2), DMF vs MMF","spleen, multi-dosed naïve mice",up-regulated
same,"FCGR1A, ST18, CCL3L1 and VCAM1 expression (downstream of NFkB), DMF vs MMF","spleen, multi-dosed naïve mice",up-regulated
"COC(=O)/C=C/C(=O)O [MMF, monomethyl fumarate]",FC 4931431B13Rik (1430416_PM_at),[3],−1.94
same,FC 5430404G13Rik (1453540_PM_at),[3],−1.55
same,FC 5730403M16Rik (1434343_PM_at),[3],1.51
same,FC Ccdc80 (1424187_PM_at),[3],−1.64
same,FC Ccl3 (1419561_PM_at),[3],−1.82
same,FC Ccr3 (1422957_PM_at),[3],−2.37
same,FC Cd300ld (1424832_PM_at),[3],−1.85
same,FC Clec4a2 (1422013_PM_at),[3],−1.50
same,FC Clec4a2 (1425406_PM_at),[3],−1.64
same,FC Clec4a3 (1429954_PM_at),[3],−1.58
same,FC Clec4n (1425951_PM_a_at),[3],−1.81
same,FC Csmd3 (1438272_PM_at),[3],−1.80
same,FC Defb1 (1419491_PM_at),[3],1.55
same,FC Dmd (1417307_PM_at),[3],−1.56
same,FC Ear3 (1422412_PM_x_at),[3],−1.73
same,FC Emr4 (1424998_PM_at),[3],−1.75
same,FC Fam63a (1438321_PM_x_at),[3],1.54
same,FC Fcgr1 (1417876_PM_at),[3],−1.84
same,FC Fgfrl1 /// LOC100046239 (1447878_PM_s_at),[3],1.53
same,FC Gzma (1417898_PM_a_at),[3],−1.64
same,FC Hpgds (1421492_PM_at),[3],−1.55
same,FC Hs6st2 (1450047_PM_at),[3],−1.75
same,FC Iigp1 (1419043_PM_a_at),[3],−1.72
same,FC Lrp4 (1426288_PM_at),[3],−1.51
same,FC Lrrc50 (1421974_PM_at),[3],1.53
same,FC Niacr1 (1419721_PM_at),[3],−1.91
same,FC Ptplad2 (1450967_PM_at),[3],−1.55
same,FC Rab31 (1431691_PM_a_at),[3],−1.62
same,FC Rnf144b (1425282_PM_at),[3],−1.71
same,FC Stfa2l1 (1442339_PM_at),[3],−2.07
same,FC Stx1a (1437390_PM_x_at),[3],1.53
same,FC Tmem26 (1434583_PM_at),[3],−1.67
same,FC Ubn2 (1430056_PM_at),[3],1.64
same,FC Ucp2 (1444566_PM_at),[3],1.54
same,FC Vnn3 (1420723_PM_at),[3],−1.59
same,FC probe 1429277_PM_at (no gene symbol),[3],−1.60
same,FC probe 1431225_PM_at (no gene symbol),[3],1.58
same,FC probe 1439831_PM_at (no gene symbol),[3],−1.51
same,FC probe 1442323_PM_at (no gene symbol),[3],1.51
same,FC probe 1447204_PM_at (no gene symbol),[3],−1.95
same,FC probe 1449653_PM_at (no gene symbol),[3],−1.57
same,FC probe 1457306_PM_at (no gene symbol),[3],2.12
same,Number of differentially expressed genes identified: Spleen,90 mpk MMF-vs-Vehicle,42
